Experimental data: EP0007672A1, “Isocyanoalkenes, process and useful intermediates for their preparation, pharmaceutical and fungicidal preparations containing those isocyanoalkenes and the use of the fungicidal preparations in agriculture” (GIST-BROCADES N.V., priority 1978, dated 1980)
Converted amounts (≈) assume the structure as drawn. Like-named read-outs stand apart in the source and are kept apart here.

Tests used:
Assay in all cases: MIC (Minimum Inhibitory Concentration)
Assay type in all cases: cell-based
[1] = tested on: Trichophyton quickeaneum; conditions: Trichophyton quickeaneum A 2040; read-out: MIC values
[2] = tested on: Trichophyton mentagrophytus
[3] = tested on: Trichophyton rubrum
[4] = tested on: Proteus morganii; conditions: Morganella morganii; Proteus morganii 2241
[5] = tested on: Trichophyton schoenleinii; conditions: Trichophyton schoenleinii 435-63; read-out: MIC values
[6] = tested on: Fusarium solani; conditions: Fusarium solani A 3245; read-out: MIC values
[7] = tested on: Bacillus subtilis; conditions: ATCC6633; Bacillus subtilis ATCC 6633
[8] = tested on: Pasteurella multocida; conditions: Pasteurella multocida A 723; read-out: MIC values
[9] = tested on: Trichophyton soudanese joyeux; conditions: Trichophyton soudanese joyeux 440-63; read-out: MIC values
[10] = tested on: Trichophyton tonsurans; conditions: Trichophyton tonsurans 561-50; read-out: MIC values
[11] = tested on: Fusarium (bulb); conditions: Fusarium (bulb) A 3252
[12] = tested on: Trichophyton verrucosum
[13] = tested on: Candida albicans
[14] = tested on: Diplococcus pneumoniae; conditions: Streptococcus pneumoniae; Diplococcus pneumoniae A 2783
[15] = tested on: Rhizoctonia solani; conditions: Rhizoctonia solani 200-25; read-out: MIC values
[16] = tested on: Trichophyton equinum
[17] = tested on: Staphylococcus aureus
[18] = tested on: Fusarium (tulip); conditions: Fusarium (tulip) A 3253
[19] = tested on: Streptococcus haemolyticus; conditions: Streptococcus haemolyticus A 1088; read-out: MIC values
[20] = tested on: Trichophyton violoceum; conditions: Trichophyton violoceum 442-62; read-out: MIC values
[21] = Trichophyton mentagrophytus 367-68, read-out: MIC values
[22] = Trichophyton mentagrophytus 421-67, read-out: MIC values
[23] = Trichophyton mentagrophytus A 3252, read-out: MIC values
[24] = Trichophyton mentagrophytus R 177, read-out: MIC values
[25] = Trichophyton mentagrophytus R 178, read-out: MIC values
[26] = Trichophyton mentagrophytus RRL 305, read-out: MIC values
[27] = Trichophyton rubrum 218-65, read-out: MIC values
[28] = Trichophyton rubrum 494-62, read-out: MIC values
[29] = Trichophyton rubrum A 810, read-out: MIC values
[30] = Trichophyton verrucosum 134-66, read-out: MIC values
[31] = Candida albicans A 7, read-out: MIC values
[32] = Candida albicans A 3140, read-out: MIC values
[33] = Candida albicans A 3141, read-out: MIC values
[34] = Candida albicans A 3142, read-out: MIC values
[35] = Candida albicans A 3143, read-out: MIC values
[36] = Candida albicans A 3144, read-out: MIC values
[37] = Candida albicans A 3145, read-out: MIC values
[38] = Candida albicans A 3165, read-out: MIC values
[39] = Candida albicans A 3166, read-out: MIC values
[40] = Candida albicans A 3167, read-out: MIC values
[41] = Candida albicans A 3168, read-out: MIC values
[42] = Candida albicans A 3169, read-out: MIC values
[43] = Candida albicans A 3171, read-out: MIC values
[44] = Candida albicans A 3184, read-out: MIC values
[45] = Candida albicans A 3190, read-out: MIC values
[46] = Candida albicans A 3191, read-out: MIC values
[47] = Candida albicans A 3192, read-out: MIC values
[48] = Candida albicans A 3194, read-out: MIC values
[49] = Candida albicans A 3196, read-out: MIC values
[50] = Trichophyton equinum 441-51, read-out: MIC values
[51] = Trichophyton equinum 856-71, read-out: MIC values

[C-]#[N+]C(=Cc1ccco1)S(=O)(=O)c1ccc(C)cc1 [Example 10, 2-(2-furyl)-1-isocyano-1-(4-toluenesulphonyl)-ethene]
MIC [1]: 3 µg/mL (≈ 11 µM) | MIC [2, 21]: 0.1 µg/mL (≈ 0.366 µM) | MIC [2, 22]: 1.5 µg/mL (≈ 5.49 µM) | MIC [2, 23]: 3 µg/mL (≈ 11 µM) | MIC [2, 24]: 1.5 µg/mL (≈ 5.49 µM) | MIC [2, 25]: 100 µg/mL (≈ 366 µM) | MIC [2, 26]: 0.1 µg/mL (≈ 0.366 µM) | MIC [3, 27]: 0.1 µg/mL (≈ 0.366 µM) | MIC [3, 28]: 0.1 µg/mL (≈ 0.366 µM) | MIC [3, 29]: < 0.05 µg/mL | MIC [4]: 6 µg/mL (≈ 22 µM) | MIC [5]: 0.1 µg/mL (≈ 0.366 µM) | MIC [6]: 25 µg/mL (≈ 91.5 µM) | MIC [7]: 6 µg/mL (≈ 22 µM) | MIC [8]: < 1.5 µg/mL | MIC [9]: 6 µg/mL (≈ 22 µM) | MIC [10]: 3 µg/mL (≈ 11 µM) | MIC [11]: 25 µg/mL (≈ 91.5 µM) | MIC [12, 30]: 0.2 µg/mL (≈ 0.732 µM) | MIC ([12]; Trichophyton verrucosum A 2922, read-out: MIC values): < 0.05 µg/mL | MIC [13, 31]: 0.2 µg/mL (≈ 0.732 µM) | MIC [13, 32]: 0.2 µg/mL (≈ 0.732 µM) | MIC [13, 33]: 0.4 µg/mL (≈ 1.46 µM) | MIC [13, 34]: 0.4 µg/mL (≈ 1.46 µM) | MIC [13, 35]: 0.2 µg/mL (≈ 0.732 µM) | MIC [13, 36]: 0.2 µg/mL (≈ 0.732 µM) | MIC [13, 37]: 0.8 µg/mL (≈ 2.93 µM) | MIC [13, 38]: 0.4 µg/mL (≈ 1.46 µM) | MIC [13, 39]: 0.4 µg/mL (≈ 1.46 µM) | MIC [13, 40]: 0.4 µg/mL (≈ 1.46 µM) | MIC [13, 41]: 0.4 µg/mL (≈ 1.46 µM) | MIC [13, 42]: 0.4 µg/mL (≈ 1.46 µM) | MIC [13, 43]: 0.4 µg/mL (≈ 1.46 µM) | MIC [13, 44]: 0.2 µg/mL (≈ 0.732 µM) | MIC [13, 45]: 0.4 µg/mL (≈ 1.46 µM) | MIC [13, 46]: 0.4 µg/mL (≈ 1.46 µM) | MIC [13, 47]: 0.2 µg/mL (≈ 0.732 µM) | MIC [13, 48]: 0.4 µg/mL (≈ 1.46 µM) | MIC [13, 49]: 0.4 µg/mL (≈ 1.46 µM) | MIC [14]: 6 µg/mL (≈ 22 µM) | MIC [15]: 1.5 µg/mL (≈ 5.49 µM) | MIC ([16]; Trichophyton equinum 182-76, read-out: MIC values): 1.5 µg/mL (≈ 5.49 µM) | MIC [16, 50]: < 0.05 µg/mL | MIC [16, 51]: < 0.05 µg/mL | MIC ([17]; Staphylococcus aureus A 321): 12.5 µg/mL (≈ 45.7 µM) | MIC ([17]; Staphylococcus aureus A 355): 12.5 µg/mL (≈ 45.7 µM) | MIC ([17]; Staphylococcus aureus A 2000): 12.5 µg/mL (≈ 45.7 µM) | MIC [18]: 12.5 µg/mL (≈ 45.7 µM) | MIC [19]: 6 µg/mL (≈ 22 µM) | MIC [20]: 0.1 µg/mL (≈ 0.366 µM)

[C-]#[N+]C(=Cc1ccc(OC)cc1)S(=O)(=O)c1ccc(C)cc1 [Example 23, 1-isocyano-2-(4-methoxyphenyl)-1-(4-toluenesulphonyl)-ethene]
MIC [2, 21]: 25 µg/mL (≈ 79.8 µM) | MIC [2, 22]: 100 µg/mL (≈ 319 µM) | MIC [2, 23]: 100 µg/mL (≈ 319 µM) | MIC [2, 24]: 12.5 µg/mL (≈ 39.9 µM) | MIC [2, 25]: > 100 µg/mL | MIC [2, 26]: 25 µg/mL (≈ 79.8 µM) | MIC [3, 27]: 25 µg/mL (≈ 79.8 µM) | MIC [3, 28]: 100 µg/mL (≈ 319 µM) | MIC [3, 29]: 25 µg/mL (≈ 79.8 µM) | MIC [4]: 6 µg/mL (≈ 19.1 µM) | MIC [5]: 3 µg/mL (≈ 9.57 µM) | MIC [7]: 3 µg/mL (≈ 9.57 µM) | MIC [8]: 3 µg/mL (≈ 9.57 µM) | MIC [9]: 6 µg/mL (≈ 19.1 µM) | MIC [10]: 0.8 µg/mL (≈ 2.55 µM) | MIC [12, 30]: 1.5 µg/mL (≈ 4.79 µM) | MIC [13, 31]: 1.5 µg/mL (≈ 4.79 µM) | MIC [13, 32]: 1.5 µg/mL (≈ 4.79 µM) | MIC [13, 33]: 1.5 µg/mL (≈ 4.79 µM) | MIC [13, 34]: 1.5 µg/mL (≈ 4.79 µM) | MIC [13, 35]: 1.5 µg/mL (≈ 4.79 µM) | MIC [13, 36]: 1.5 µg/mL (≈ 4.79 µM) | MIC [13, 37]: 1.5 µg/mL (≈ 4.79 µM) | MIC [13, 38]: 1.5 µg/mL (≈ 4.79 µM) | MIC [13, 39]: 1.5 µg/mL (≈ 4.79 µM) | MIC [13, 40]: 1.5 µg/mL (≈ 4.79 µM) | MIC [13, 41]: 1.5 µg/mL (≈ 4.79 µM) | MIC [13, 42]: 1.5 µg/mL (≈ 4.79 µM) | MIC [13, 43]: 1.5 µg/mL (≈ 4.79 µM) | MIC [13, 44]: 1.5 µg/mL (≈ 4.79 µM) | MIC [13, 45]: 1.5 µg/mL (≈ 4.79 µM) | MIC [13, 46]: 1.5 µg/mL (≈ 4.79 µM) | MIC [13, 47]: 1.5 µg/mL (≈ 4.79 µM) | MIC [13, 48]: 1.5 µg/mL (≈ 4.79 µM) | MIC [13, 49]: 1.5 µg/mL (≈ 4.79 µM) | MIC [14]: 6 µg/mL (≈ 19.1 µM) | MIC [16, 50]: 1.5 µg/mL (≈ 4.79 µM) | MIC [16, 51]: 100 µg/mL (≈ 319 µM) | MIC ([17]; Staphylococcus aureus A 321): 3 µg/mL (≈ 9.57 µM) | MIC ([17]; Staphylococcus aureus A 355): 3 µg/mL (≈ 9.57 µM) | MIC ([17]; Staphylococcus aureus A 2000): 1.5 µg/mL (≈ 4.79 µM) | MIC [19]: < 0.05 µg/mL | MIC [20]: 3 µg/mL (≈ 9.57 µM)
